Assay results reported in US6818647B2, “Method and composition for restoring diuretic and renal function” (CV Therapeutics, Inc, priority 1998, dated 2004).
Where “and” joins values, the source holds several entries; their conditions need not be identical. Identical values can stand only once. Entries after “also recorded” stand apart in the source; their conditions may differ.

Experiments:
[1] = system: Male Sprague-Dawley rats; test: Renal function of anesthetized rats after 0-3 days of furosemide, before and after BG9719 IV (Example 7); assay type: in vivo, rat
Description: Twenty four hours after their last dose, they were anesthetized and instrumented to measure renal function and hemodynamics.
We collected a 30 minute baseline urine and determined basal sodium excretion in these rats.
Twenty-four hours after the last dose was administered, the rats were anesthetized and instrumented to measure renal function. […] Urine was collected via an implanted bladder catheter.

[2] = Micropuncture studies; assay type: in vivo; conditions: following administration of BG9719
[3] = system: Male Sprague-Dawley rats; test: Natriuretic response to oral dosing in rats in metabolic cages (Examples 3, 5, 6); assay type: in vivo, rat; conditions: once-daily gavage, Days 1-5, furosemide 100 mg/kg or BG9719 1 mg/kg; urine 4 hours after dosing
Description: Urines were collected for 4 hours post dosing and the natriuretic response was determined. The data are expressed as uEq/hr.
FIG. 8: In the same rats from FIG. 7, we collected urine for 4 hours after dosing.
Twenty four male Sprague-Dawley rats were placed in metabolic cages to collect urines in order to assess the natriuretic response to orally administered compounds. […] Urines were collected for 4 hours after dosing. Urine volume was determined gravimetrically and urinary sodium concentration was determined by flame photometry.
The rats shown in Example 4 were placed in metabolic cages on Days 1 through 5 of dosing and urine was collected for 4 hours after dosing. Urine volume was determined gravimetrically and urinary sodium concentration was determined by flame photometry.
They were placed in metabolic cages and urines were collected for four hours after dosing. Urine volume was determined gravimetrically and urinary sodium concentration was determined by flame photometry.

[4] = target: T1, adenosine A1 receptor (Homo sapiens, UniProt P30542); test: IC50 for the adenosine A1 receptor; assay type: binding
T1 sequence (P30542 1-326): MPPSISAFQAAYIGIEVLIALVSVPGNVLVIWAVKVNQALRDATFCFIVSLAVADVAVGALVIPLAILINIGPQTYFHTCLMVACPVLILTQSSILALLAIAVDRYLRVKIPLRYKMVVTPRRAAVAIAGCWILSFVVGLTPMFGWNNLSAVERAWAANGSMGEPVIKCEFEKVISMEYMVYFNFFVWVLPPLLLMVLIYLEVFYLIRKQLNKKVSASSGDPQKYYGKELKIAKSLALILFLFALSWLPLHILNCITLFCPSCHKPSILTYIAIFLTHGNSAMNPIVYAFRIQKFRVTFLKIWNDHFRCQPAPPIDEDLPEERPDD

[5] = system: Male Sprague-Dawley rats; test: Sustained i.v. infusion of diuretics in conscious catheterised rats: dose response, combinations, renal clearance (Example 2); assay type: in vivo, rat; conditions: for Equidiuretic dose / dose at which the maximum diuretic effect was reached / Potassium excretion / diuretic effect (urine flow): sustained i.v. infusion; for dose at which the maximum diuretic effect was reached / Potassium excretion / diuretic effect (urine flow): dose response; for Potassium excretion / diuretic effect (urine flow): single agents
Description: Male Sprague-Dawley rats were obtained from Charles River Labs (Wilmington, Del.). They were housed in a light-controlled room with a 12 h light/dark cycle and were allowed ad libitum access to food and water.
Catheters were implanted in the abdominal aorta and vena cava via the left femoral artery and vein under a mixture of ketamine hydrochloride (50 mg/kg) and acepromazine (0.2 mg/kg, i.m.) anesthesia. An additional medical grade Tygon tubing was placed in the he stomach at the left extremity of the greater curvature. A silastic-covered stainless steel cannula was implanted in the bladder. Details of surgery, pre and post-surgical care and the experimental set-ups have been described in detail previously (87). Experiments were conducted 4-5 days following surgery, by which time the rats had fully recovered and were gaining weight. During the recovery, the rats were housed individually and were accustomed to a plastic retainer (model ECU, Braintree Scientific, Inc., Braintree, Mass.).
Between 8:00-9:00 AM, rats were weighed and placed in the restrainer. The arterial line was connected to a Gilson polygraph via a Gould pressure transducer for the recording of blood pressure (MAP) and heart rate (HR); the venous line to infusion pumps for the infusion of vehicle and test agents; and the stomach tube to a 10 or 20 cc syringe to allow for the replacement of excess urinary loss. The bladder cannula was extended with a short length of PE tubing to permit collection of urine into preweighed tubes.
To replace normal fluid and electrolytes loss, heparinized (50 U/ml) ringer's solution was infused throughout the experiment via the arterial line and 5% dextrose during the equilibration and control period via the venous line, each at 10 μl/min. When excess fluid loss reached 2 ml, it was replaced via the gastric tube with room temperature Ringer's solution. A period of 45-60 min was allowed for equilibration in all studies, at the end of which a 0.5 ml blood sample was taken for measurement of hematocrit, plasma electrolytes and creatinine. This was followed by the various experimental procedures described below.
Group 1. Sustained I.V. infusion of diuretic agents. Urine was collected in 5 min periods throughout the experimental period. After equilibration, 3 collections were made to establish baseline. thirty min urine collections were made before and during infusion of test agent. […] At the end of experiments, the rats were weighed again and returned to their home cages.
Group 2. Sustained i.v. infusion of combinations diuretics. […] After the termination of infusion, urine flow was allowed to return to baseline, approximately 15-20 min. The rats were then weighed and returned to their home cages.
Group 3. […] (10%) and PAH (2%) were infused i.v. at 20 μl/min from the start. IN order to establish baseline values, two 20 min urine collections were performed following equilibration. One blood sample (500 μl) was taken in the middle of the second collection.
Urinary and plasma concentrations of […] and PAH were determined by spectrophotometry, electrolyte concentrations were measured using the Synchron ASB Clinical System (Beckman Instr. Inc., Brea, Calif.) and osmolality by an automatic osmometer (Model 2430, Precision Systems, Inc., Natick, Mass.). Renal clearance values were calculated using standard clearance formulae and expressed per 100 g body weight.
All values represent maximal changes, expressed as absolute values, and are reported throughout as group means+−SEM. Data from the does-response studies (groups 1-5) were analyzed using an analysis of variance for repeated measures, post-hoc comparisons were made with the Schette f-test. Analysis of variance (ANOVA) was used to analyze differences between the effects of various diuretics and their combinations (group 6) and the renal clearance data (group 7). A value of P<0.05 was considered statistically significant.

[6] = target: T1, adenosine A1 receptor; conditions: other adenosine A1 receptor antagonists; cited from earlier work
[7] = system: patients with NYHA Class II or III CHF; test: Renal function in CHF patients after single intravenous dose (Example 1); conditions: 0-2 hours, mean, single i.v. dose
[8] = renal clearance study, FUR 10 μg/kg/min i.v. for 90 min

Compound	GFR after dosing in Day 3 furosemide rats ([1]; BG9719 0.1 mg/kg IV after 3 days furosemide)	urinary sodium excretion (UNaV) after dosing ([1]; BG9719 0.1 mg/kg IV, control rats and 3 Day Furo rats)	GFR after dosing versus baseline ([1]; BG9719 0.1 mg/kg IV, rats with 0-3 days furosemide)	tubular flow rates [2]	natriuretic response on repeated dosing [3]	IC50 [4]	increase in GFR ([5]; renal clearance study, 1 μg/kg/min i.v. for 90 min, not statistically significant)	absolute and fractional excretions of sodium ([5]; renal clearance study, BG9719 1 or FUR 10 μg/kg/min i.v. for 90 min)	total urine output ([5]; representative animal of FIG. 1, i.v. infusion 0.3-10 μg/kg/min)	Equidiuretic dose [5]	dose at which the maximum diuretic effect was reached [5]	Potassium excretion [5]	diuretic effect (urine flow) [5]	A1 vs. A2 selectivity [6]	basal GFR ([1]; after 1 day of furosemide 100 mg/kg orally)	GFR [5, 8]	RBF [5, 8]	Urine volume [7]
CCCn1c(=O)c2nc(C3CC4CC3C3OC43)[nH]c2n(CCC)c1=O [BG9719, 1,3-dipropyl-8-[5,6-exo-epoxy)-2(S) norbornyl] xanthine]	recover to a level not different than normal rats	reaches maximum within the first fifteen minutes	increases in all groups	increased flow rates in both the proximal and distal tubules	maintained across multiple dosing days	1.15 nM	13%	increased	23.8 mL	1 µg/kg/min	3 µg/kg/min	not	does-dependent increase in urine flow	–	–	–	–	–
NS(=O)(=O)c1cc2c(cc1Cl)NCNS2(=O)=O [HCTZ, hydrochlorothiazide]	–	–	–	–	–	–	–	–	–	30 µg/kg/min	20 µg/kg/min	significantly increased	only minor effects	–	–	–	–	–
CCCn1c(=O)c2[nH]c(C34CC5CC(CC3C5)C4)nc2n(CCC)c1=O [KW 3902]	–	–	–	–	–	–	–	–	–	–	–	–	–	150 fold	–	–	–	–
NS(=O)(=O)c1cc(C(=O)O)c(NCc2ccco2)cc1Cl [furosemide]	–	–	–	–	diminishes on repeated dosing	–	–	–	–	10 µg/kg/min	100 µg/kg/min	–	twice as a potent diuretic as BG9719	–	relatively normal; also recorded: fairly normal	significantly lowered	significantly lowered	increased and 1081 mL
